Reference: US20020137929A1, “1 - (3-heterocyclylphenyl) isothiourea, -isourea, -guanidine and -amidine herbicidal agents” (Intellectual Property Department, BASF Aktiengesellschaft, priority 1998, published 2002)

Tests used:
AMBEL (Ragweed, Common) = assay: Postemergence herbicidal evaluation; type: in vivo, Ambrosia artemisifolia
How it was run: (§1)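 Young plants, roughly two weeks from seeding, receive the active ingredient as a sprayed dispersion (acetone/water 50/50, 0.5% TWEEN 20) at 40 psi. Doses span about 0.0156 to 0.500 kg/ha. A visual score from 0 to 9 compares treated with control plants four to five weeks on.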

CASOB (Sicklepod) [1] = assay: Postemergence herbicidal evaluation; type: in vivo, Cassia obtusifolia
How it was run: as §1

GALAP (Galium) = assay: Postemergence herbicidal evaluation; type: in vivo, Galium aparine
How it was run: as §1

[2] = tested on: IPOHE (Morningglory, Ivyleaf); assay: Postemergence herbicidal evaluation; type: in vivo, Ipomoea hederacea
How it was run: as §1

ABUTH (Velvetleaf) = assay: Preemergence herbicidal evaluation; type: in vivo, Abutilon theophrasti; settings: rated 4-5 weeks after treatment
How it was run: (§2)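 Herbicidal effect scored visually, 0-9, at 4 to 5 weeks against a control; compound applied preemergence by aqueous acetone spray to seeded soil at about 0.0156 to 0.500 kg/ha.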

CASOB (Sicklepod) [3] = assay: Preemergence herbicidal evaluation; type: in vivo, Cassia obtusifolia; settings: rated 4-5 weeks after treatment
How it was run: as §2

[4] = tested on: IPOHE (Morningglory, Ivyleaf); assay: Preemergence herbicidal evaluation; type: in vivo, Ipomoea hederacea; settings: rated 4-5 weeks after treatment
How it was run: as §2

ECHCG (Barnyardgrass) = assay: Preemergence herbicidal evaluation; type: in vivo, Echinochloa crus-galli; settings: rated 4-5 weeks after treatment
How it was run: as §2

[5] = tested on: GLXMAW (Soybean, Williams); assay: Preemergence herbicidal evaluation; type: in vivo, Glycine max, (L.) Merr. cv Williams; settings: rated 4-5 weeks after treatment
How it was run: as §2

[6] = tested on: TRZAWR (Wheat, Winter, cv Riband); assay: Preemergence herbicidal evaluation; type: in vivo, Triticum aestivum; settings: rated 4-5 weeks after treatment
How it was run: as §2

ZEAMX (Corn, Field) = assay: Preemergence herbicidal evaluation; type: in vivo, Zea mays; settings: rated 4-5 weeks after treatment
How it was run: as §2

MOOVA (Monochoria) = assay: Preemergence weed control under flooded paddy conditions; type: in vivo, Monochoria vaginalis; settings: rated 3-4 weeks after treatment
How it was run: (§3)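 Flooded-pot preemergence screen with silt loam and seeds in the upper 0.5 cm. Dose about 0.0313 to 0.500 kg/ha, delivered into flood water; visual 0-9 score after 3 to 4 weeks.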

[7] = tested on: SAGPY (Arrowhead (Pygmaea)); assay: as above; type: in vivo, Sagittaria pygmaea; settings: rated 3-4 weeks after treatment
How it was run: as §3

CYPIR (Rice Flatsedge) = assay: Postemergence weed control under flooded paddy conditions; type: in vivo, Cyperus iria; settings: postemergence weeds, 3-4 weeks after treatment
How it was run: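 Injury ratings (0–9 scale covering stand, vigor, malformation, size, chlorosis and overall appearance versus control) were made three to four weeks after treatment. Test material, about 0.0313 to 0.500 kg/ha a.i. in 50/50 v/v aqueous/acetone, was added to flood water 1.5 to 3 cm deep over 3 to 5 cm weeds and 1.5 to 2.5 leaf rice.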

C[C@@H](C(=O)O)N1C(=O)CS/C1=N/c1cc(-n2c(=O)cc(C(F)(F)F)n(C)c2=O)c(F)cc1Cl [Compound 51, 2-{{2-Chloro-5-[3,6-dihydro-3-methyl-2,6-dioxo-4-(trifluoromethyl)-1(2H)-pyrimidinyl]-4-fluoro-phenyl}imino}-α-methyl-4-oxo-3-thiazolidineacetic acid, L-]
Postemergence herbicidal rating AMBEL (AMBEL (Ragweed, Common); Rate 0.0158 kg/ha): 6.0
Postemergence herbicidal rating AMBEL (AMBEL (Ragweed, Common); Rate 0.0315 kg/ha): 6.0
Postemergence herbicidal rating AMBEL (AMBEL (Ragweed, Common); Rate 0.0630 kg/ha): 9.0
Postemergence herbicidal rating CASOB (CASOB (Sicklepod) [1]; Rate 0.0158 kg/ha): 2.0
Postemergence herbicidal rating CASOB (CASOB (Sicklepod) [1]; Rate 0.0315 kg/ha): 2.0
Postemergence herbicidal rating CASOB (CASOB (Sicklepod) [1]; Rate 0.0630 kg/ha): 7.0
Postemergence herbicidal rating GALAP (GALAP (Galium); Rate 0.0158 kg/ha): 4.0
Postemergence herbicidal rating GALAP (GALAP (Galium); Rate 0.0315 kg/ha): 9.0
Postemergence herbicidal rating GALAP (GALAP (Galium); Rate 0.0630 kg/ha): 9.0
Postemergence herbicidal rating IPOHE ([2]; Rate 0.0158 kg/ha): 9.0
Postemergence herbicidal rating IPOHE ([2]; Rate 0.0315 kg/ha): 9.0
Postemergence herbicidal rating IPOHE ([2]; Rate 0.0630 kg/ha): 9.0
Preemergence herbicidal rating ABUTH (ABUTH (Velvetleaf); rate 0.0156 kg/ha): 9.0
Preemergence herbicidal rating ABUTH (ABUTH (Velvetleaf); rate 0.0313 kg/ha): 9.0
Preemergence herbicidal rating ABUTH (ABUTH (Velvetleaf); rate 0.0625 kg/ha): 9.0
Preemergence herbicidal rating ABUTH (ABUTH (Velvetleaf); rate 0.1250 kg/ha): 7.0
Preemergence herbicidal rating ABUTH (ABUTH (Velvetleaf); rate 0.2500 kg/ha): 9.0
Preemergence herbicidal rating CASOB (CASOB (Sicklepod) [3]; rate 0.0156 kg/ha): 0.0
Preemergence herbicidal rating CASOB (CASOB (Sicklepod) [3]; rate 0.0313 kg/ha): 0.0
Preemergence herbicidal rating CASOB (CASOB (Sicklepod) [3]; rate 0.0625 kg/ha): 0.0
Preemergence herbicidal rating CASOB (CASOB (Sicklepod) [3]; rate 0.1250 kg/ha): 1.0
Preemergence herbicidal rating CASOB (CASOB (Sicklepod) [3]; rate 0.2500 kg/ha): 1.0
Preemergence herbicidal rating IPOHE ([4]; rate 0.0156 kg/ha): 2.0
Preemergence herbicidal rating IPOHE ([4]; rate 0.0313 kg/ha): 9.0
Preemergence herbicidal rating IPOHE ([4]; rate 0.0625 kg/ha): 9.0
Preemergence herbicidal rating IPOHE ([4]; rate 0.1250 kg/ha): 9.0
Preemergence herbicidal rating IPOHE ([4]; rate 0.2500 kg/ha): 9.0
Preemergence herbicidal rating ECHCG (ECHCG (Barnyardgrass); rate 0.0156 kg/ha): 0.0
Preemergence herbicidal rating ECHCG (ECHCG (Barnyardgrass); rate 0.0313 kg/ha): 0.0
Preemergence herbicidal rating ECHCG (ECHCG (Barnyardgrass); rate 0.0625 kg/ha): 1.0
Preemergence herbicidal rating ECHCG (ECHCG (Barnyardgrass); rate 0.1250 kg/ha): 1.0
Preemergence herbicidal rating ECHCG (ECHCG (Barnyardgrass); rate 0.2500 kg/ha): 1.0
Preemergence herbicidal rating GLXMAW ([5]; rate 0.0156 kg/ha): 0.0
Preemergence herbicidal rating GLXMAW ([5]; rate 0.0313 kg/ha): 0.0
Preemergence herbicidal rating GLXMAW ([5]; rate 0.0625 kg/ha): 1.0
Preemergence herbicidal rating GLXMAW ([5]; rate 0.1250 kg/ha): 1.0
Preemergence herbicidal rating GLXMAW ([5]; rate 0.2500 kg/ha): 7.0
Preemergence herbicidal rating TRZAWR ([6]; rate 0.0156 kg/ha): 0.0
Preemergence herbicidal rating TRZAWR ([6]; rate 0.0313 kg/ha): 0.0
Preemergence herbicidal rating TRZAWR ([6]; rate 0.0625 kg/ha): 0.0
Preemergence herbicidal rating TRZAWR ([6]; rate 0.1250 kg/ha): 2.0
Preemergence herbicidal rating TRZAWR ([6]; rate 0.2500 kg/ha): 6.0
Preemergence herbicidal rating ZEAMX (ZEAMX (Corn, Field); rate 0.0156 kg/ha): 1.0
Preemergence herbicidal rating ZEAMX (ZEAMX (Corn, Field); rate 0.0313 kg/ha): 1.0
Preemergence herbicidal rating ZEAMX (ZEAMX (Corn, Field); rate 0.0625 kg/ha): 1.0
Preemergence herbicidal rating ZEAMX (ZEAMX (Corn, Field); rate 0.1250 kg/ha): 2.0
Preemergence herbicidal rating ZEAMX (ZEAMX (Corn, Field); rate 0.2500 kg/ha): 6.0
Herbicidal rating MOOVA (MOOVA (Monochoria); 0.0625 kg/ha): 3.0
Herbicidal rating MOOVA (MOOVA (Monochoria); 0.1250 kg/ha): 4.0
Herbicidal rating MOOVA (MOOVA (Monochoria); 0.2500 kg/ha): 4.0
Herbicidal rating SAGPY ([7]; 0.0625 kg/ha): 0.0
Herbicidal rating SAGPY ([7]; 0.1250 kg/ha): 0.0
Herbicidal rating SAGPY ([7]; 0.2500 kg/ha): 0.0
Herbicidal rating CYPIR (CYPIR (Rice Flatsedge); rate 0.0625 kg/ha): 2.0
Herbicidal rating CYPIR (CYPIR (Rice Flatsedge); rate 0.1250 kg/ha): 3.0
Herbicidal rating CYPIR (CYPIR (Rice Flatsedge); rate 0.2500 kg/ha): 6.0
